Laboratory results: ChEMBL document CHEMBL5241112, “Insights into the recent progress in the medicinal chemistry of pyranopyrimidine analogs” (RSC Med Chem, 2022)
Converted amounts (≈) assume the structure as drawn.

Tests used:
[1] = biological target: Polyunsaturated fatty acid 5-lipoxygenase (Homo sapiens, UniProt P09917); assay: Inhibition of 5-LOX (unknown origin) by colorimetric analysis
cells = conditions: Homo sapiens, Macrophage
Escherichia coli [2] = assay: Antimicrobial activity against Escherichia coli ATCC 25922 assessed as diameter of inhibition zone at 20 mg/ml incubated for 24 hrs by disk diffusion method; assay type: functional; conditions: read-out: DIZ
Citrobacter freundii = assay: Antimicrobial activity against Citrobacter freundii ATCC 8090 assessed as diameter of inhibition zone at 20 mg/ml incubated for 24 hrs by disk diffusion method; assay type: functional; conditions: read-out: DIZ
Klebsiella pneumoniae [3] = assay: Antimicrobial activity against Klebsiella pneumoniae ATCC 15380 assessed as diameter of inhibition zone at 20 mg/ml incubated for 24 hrs by disk diffusion method; assay type: functional; conditions: read-out: DIZ
Pseudomonas aeruginosa [4] = assay: Antimicrobial activity against Pseudomonas aeruginosa ATCC 27853 assessed as diameter of inhibition zone at 20 mg/ml incubated for 24 hrs by disk diffusion method; assay type: functional; conditions: read-out: DIZ
Salmonella typhimurium = assay: Antimicrobial activity against Salmonella typhimurium ATCC 19430 assessed as diameter of inhibition zone at 20 mg/ml incubated for 24 hrs by disk diffusion method; assay type: functional, Salmonella enterica subsp. enterica serovar Typhimurium; conditions: Salmonella enterica, read-out: DIZ
Human alphaherpesvirus 1 [5] = assay: Antiviral activity against HSV-1 assessed as inhibition of viral replication at 40 ug; assay type: functional; parameters: scale not given: the % may be the effect or the level left; conditions: dose 40 µg
Human alphaherpesvirus 1 [6] = assay: Antiviral activity against HSV-1 assessed as inhibition of viral replication at 20 ug; assay type: functional; parameters: scale not given: the % may be the effect or the level left; conditions: dose 20 µg
[7] = Cytotoxicity against human HDF cells assessed as reduction in cell viability by MTT assay; assay type: toxicity, cell-based; conditions: HDF cells (NHDF cell line)
MDA-MB-231 = assay: cells; conditions: Homo sapiens
PANC-1 = assay: Antiproliferative activity against human PANC-1 cells assessed as reduction in cell viability by MTT assay; assay type: functional, cell-based; conditions: read-out: IC50
Candida parapsilosis = assay: Antifungal activity against Candida parapsilosis MTCC 1744 assessed as inhibition of fungal growth incubated for 24 hrs by agar well diffusion method; assay type: functional; conditions: Lodderomyces parapsilosis
Staphylococcus aureus [8] = assay: Antibacterial activity against Staphylococcus aureus MLS-16 MTCC 2940 assessed as bacterial growth inhibition incubated for 24 hrs by broth microdilution method; assay type: functional
Micrococcus luteus [9] = assay: Antibiofilm activity against Micrococcus luteus MTCC 2470 assessed as inhibition of biofilm incubated for 24 hrs by crystal violet staining based spectrophotometry; assay type: functional, organism-based; conditions: MTCC 2470, 24 h
Staphylococcus aureus [10] = assay: Antibacterial activity against Staphylococcus aureus MTCC 96 assessed as bacterial growth inhibition incubated for 24 hrs by broth microdilution method; assay type: functional
Bacillus subtilis [11] = assay: Antibacterial activity against Bacillus subtilis MTCC 121 assessed as bacterial growth inhibition incubated for 24 hrs by broth microdilution method; assay type: functional
Nakaseomyces glabratus = assay: Antifungal activity against Candida glabrata MTCC 3019 assessed as inhibition of fungal growth incubated for 24 hrs by agar well diffusion method; assay type: functional
Staphylococcus aureus [12] = assay: Antibacterial activity against Staphylococcus aureus MTCC 96 assessed as minimum bactericidal concentration incubated for 24 hrs by broth microdilution method; assay type: functional
Escherichia coli [13] = assay: Antibiofilm activity against Escherichia coli MTCC 739 assessed as inhibition of biofilm incubated for 24 hrs by crystal violet staining based spectrophotometry; assay type: functional, organism-based; conditions: MTCC 739, 24 h
Candida albicans [14] = assay: Antifungal activity against Candida albicans MTCC 227 assessed as inhibition of fungal growth incubated for 24 hrs by agar well diffusion method; assay type: functional
Micrococcus luteus [15] = assay: Antibacterial activity against Micrococcus luteus MTCC 2470 assessed as minimum bactericidal concentration incubated for 24 hrs by broth microdilution method; assay type: functional
Bacillus subtilis [16] = assay: Antibiofilm activity against Bacillus subtilis MTCC 121 assessed as inhibition of biofilm incubated for 24 hrs by crystal violet staining based spectrophotometry; assay type: functional, organism-based; conditions: MTCC 121, 24 h
Staphylococcus aureus [17] = assay: Antibacterial activity against Staphylococcus aureus MLS-16 MTCC 2940 assessed as minimum bactericidal concentration incubated for 24 hrs by broth microdilution method; assay type: functional
Raoultella planticola [18] = assay: Antibiofilm activity against Raoultella planticola MTCC 530 assessed as inhibition of biofilm incubated for 24 hrs by crystal violet staining based spectrophotometry; assay type: functional, organism-based; conditions: Klebsiella planticola, MTCC 530, 24 h
Staphylococcus aureus [19] = assay: Antibiofilm activity against Staphylococcus aureus MTCC 96 assessed as inhibition of biofilm incubated for 24 hrs by crystal violet staining based spectrophotometry; assay type: functional, organism-based; conditions: MTCC 96, 24 h
Escherichia coli [20] = assay: Antibacterial activity against Escherichia coli MTCC 739 assessed as bacterial growth inhibition incubated for 24 hrs by broth microdilution method; assay type: functional
Pichia kudriavzevii = assay: Antifungal activity against Candida krusei MTCC 3020 assessed as inhibition of fungal growth incubated for 24 hrs by agar well diffusion method; assay type: functional
Candida albicans [21] = assay: Antifungal activity against Candida albicans MTCC 854 assessed as inhibition of fungal growth incubated for 24 hrs by agar well diffusion method; assay type: functional
Escherichia coli [22] = assay: Antibacterial activity against Escherichia coli MTCC 739 assessed as minimum bactericidal concentration incubated for 24 hrs by broth microdilution method; assay type: functional
Candida albicans [23] = assay: Antifungal activity against Candida albicans MTCC 1637 assessed as inhibition of fungal growth incubated for 24 hrs by agar well diffusion method; assay type: functional
Candida albicans [24] = assay: Antifungal activity against Candida albicans MTCC 183 assessed as inhibition of fungal growth incubated for 24 hrs by agar well diffusion method; assay type: functional
Pichia sporocuriosa = assay: Antifungal activity against Pichia sporocuriosa MTCC 4755 assessed as inhibition of fungal growth incubated for 24 hrs by agar well diffusion method; assay type: functional
Micrococcus luteus [25] = assay: Antibacterial activity against Micrococcus luteus MTCC 2470 assessed as bacterial growth inhibition incubated for 24 hrs by broth microdilution method; assay type: functional
Staphylococcus aureus [26] = assay: Antibiofilm activity against Staphylococcus aureus MLS-16 MTCC 2940 assessed as inhibition of biofilm incubated for 24 hrs by crystal violet staining based spectrophotometry; assay type: functional, organism-based; conditions: MLS-16 MTCC 2940, 24 h
Raoultella planticola [27] = assay: Antibacterial activity against Raoultella planticola MTCC 530 assessed as bacterial growth inhibition incubated for 24 hrs by broth microdilution method; assay type: functional; conditions: Klebsiella planticola
Raoultella planticola [28] = assay: Antibacterial activity against Raoultella planticola MTCC 530 assessed as minimum bactericidal concentration incubated for 24 hrs by broth microdilution method; assay type: functional; conditions: Klebsiella planticola
Bacillus subtilis [29] = assay: Antibacterial activity against Bacillus subtilis MTCC 121 assessed as minimum bactericidal concentration incubated for 24 hrs by broth microdilution method; assay type: functional
Serratia marcescens = assay: Antibacterial activity against Serratia marcescens assessed as diameter of inhibition zone by disc diffusion method; assay type: functional
Bacillus cereus = assay: Antibacterial activity against Bacillus cereus assessed as diameter of inhibition zone by disc diffusion method; assay type: functional
Aspergillus ochraceus = assay: Antifungal activity against Aspergillus ochraceus assessed as diameter of inhibition zone by disc diffusion method; assay type: functional
Penicillium chrysogenum = assay: Antifungal activity against Penicillium chrysogenum assessed as diameter of inhibition zone by disc diffusion method; assay type: functional
Staphylococcus aureus [30] = assay: Antibacterial activity against Staphylococcus aureus ATCC6538-P assessed as inhibition of bacterial growth incubated for 24 hrs by disk diffusion method; assay type: functional
Staphylococcus aureus [31] = assay: Antibacterial activity against Staphylococcus aureus MTCC 87 assessed as diameter of inhibition zone at 0.1 mg/ml incubated for 24 hrs by agar well diffusion method; assay type: functional; conditions: read-out: DIZ
Streptococcus pneumoniae = assay: Antibacterial activity against Streptococcus pneumoniae ATCC BAA-255/R6 assessed as inhibition of bacterial growth incubated for 24 hrs by disk diffusion method; assay type: functional
Klebsiella pneumoniae [32] = assay: Antibacterial activity against Klebsiella pneumoniae assessed as diameter of inhibition zone at 100 ug/ml by disc diffusion method; assay type: functional; conditions: read-out: DIZ
Escherichia coli [33] = assay: Antibacterial activity against Escherichia coli assessed as diameter of inhibition zone at 100 ug/ml by disc diffusion method; assay type: functional; conditions: read-out: DIZ
Pseudomonas aeruginosa [34] = assay: Antibacterial activity against Pseudomonas aeruginosa MTCC 741 assessed as diameter of inhibition zone at 0.1 mg/ml incubated for 24 hrs by agar well diffusion method; assay type: functional; conditions: read-out: DIZ
Klebsiella pneumoniae [35] = assay: Antibacterial activity against Klebsiella pneumoniae MGH 78578 assessed as diameter of inhibition zone at 50 mg/ml incubated for 24 hrs by paper disk diffusion method; assay type: functional; conditions: read-out: DIZ
Staphylococcus aureus [36] = assay: Antibacterial activity against Staphylococcus aureus assessed as diameter of inhibition zone at 100 ug/ml by disc diffusion method; assay type: functional; conditions: read-out: DIZ
Bacillus subtilis [37] = assay: Antibacterial activity against Bacillus subtilis assessed as diameter of inhibition zone at 100 ug/ml by disc diffusion method; assay type: functional; conditions: read-out: DIZ
Escherichia coli [38] = assay: Antibacterial activity against Escherichia coli ATCC 25922 assessed as diameter of inhibition zone at 50 mg/ml incubated for 24 hrs by paper disk diffusion method; assay type: functional; conditions: read-out: DIZ
Klebsiella pneumoniae [39] = assay: Antibacterial activity against Klebsiella pneumoniae MTCC 109 assessed as diameter of inhibition zone at 0.1 mg/ml incubated for 24 hrs by agar well diffusion method; assay type: functional; conditions: read-out: DIZ
Escherichia coli [40] = assay: Antibacterial activity against Escherichia coli MTCC 723 assessed as diameter of inhibition zone at 0.1 mg/ml incubated for 24 hrs by agar well diffusion method; assay type: functional; conditions: read-out: DIZ
Aspergillus fumigatus = assay: Antifungal activity against Aspergillus fumigatus ATCC204305 assessed as inhibition of […] growth incubated for 24 hrs by disk diffusion method; assay type: functional

Polyunsaturated fatty acid 5-lipoxygenase, sequence (P09917 whole entry): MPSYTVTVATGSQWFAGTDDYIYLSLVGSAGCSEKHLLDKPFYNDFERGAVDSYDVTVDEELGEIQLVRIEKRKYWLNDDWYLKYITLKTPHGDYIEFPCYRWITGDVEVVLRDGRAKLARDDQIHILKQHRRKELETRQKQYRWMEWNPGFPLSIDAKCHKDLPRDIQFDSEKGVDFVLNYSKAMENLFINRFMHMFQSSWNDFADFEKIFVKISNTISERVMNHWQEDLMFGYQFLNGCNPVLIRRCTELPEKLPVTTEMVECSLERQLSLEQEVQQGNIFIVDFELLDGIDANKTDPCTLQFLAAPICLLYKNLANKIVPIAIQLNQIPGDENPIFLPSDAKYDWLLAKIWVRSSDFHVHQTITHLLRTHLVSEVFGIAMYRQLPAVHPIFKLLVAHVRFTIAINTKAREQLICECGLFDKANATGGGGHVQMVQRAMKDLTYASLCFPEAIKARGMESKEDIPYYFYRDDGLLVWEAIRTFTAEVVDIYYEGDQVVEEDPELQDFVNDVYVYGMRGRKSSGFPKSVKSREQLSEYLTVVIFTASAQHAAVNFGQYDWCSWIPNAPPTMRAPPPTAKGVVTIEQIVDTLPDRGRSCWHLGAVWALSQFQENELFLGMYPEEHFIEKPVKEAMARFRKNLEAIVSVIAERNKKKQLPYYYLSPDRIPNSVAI

## N=c1c2c(ncn1-c1ccccc1)Oc1[nH]c(=S)[nH]c(=O)c1C2c1ccc(Cl)cc1 (configuration not stated)
[1]
  IC50: 1.93 µM
cells
  IC50: 3.5 µM

## Cc1csc(C2C(C#N)=C(N)Oc3[nH]c(=O)[nH]c(=O)c32)c1 (configuration not stated)
Escherichia coli [2]
  zone of inhibition at 20000 µg/mL: 14 mm
Citrobacter freundii
  zone of inhibition at 20000 µg/mL: 12 mm
Klebsiella pneumoniae [3]
  zone of inhibition at 20000 µg/mL: 16 mm
Pseudomonas aeruginosa [4]
  zone of inhibition at 20000 µg/mL: 18 mm
Salmonella typhimurium
  zone of inhibition at 20000 µg/mL: 20 mm

## Cc1nc2c(c(=O)[nH]1)C(c1ccc([N+](=O)[O-])cc1)c1c(n[nH]c1C)O2 (configuration not stated)
Human alphaherpesvirus 1 [5]
  Activity: 95%
Human alphaherpesvirus 1 [6]
  Activity: 63%

## N#CC1=C(NC[C@]2(O)O[C@H](O)[C@@H](O)[C@@H](O)[C@H]2O)Oc2[nH]c(=S)[nH]c(=O)c2C1c1ccc(Cl)cc1 (some centres not stated)
[1]
  IC50: 1.66 µM
cells
  IC50: 3.23 µM

## N#CC1=C(N)Oc2[nH]c(=O)[nH]c(=O)c2C12c1cc(Br)ccc1-n1c2nc2ccccc2c1=O (configuration not stated)
[7]
  IC50: > 100 µM
MDA-MB-231
  IC50: 10.9 µM
PANC-1
  IC50: 14.2 µM

## COc1ccc(Nc2ncnc3c2C(c2ccc(OC)cc2)c2c(cc(C)oc2=O)O3)cc1 (configuration not stated)
Candida parapsilosis
  MIC: 7.8 µg/mL (≈ 17.6 µM)
Staphylococcus aureus [8]
  MIC: 15.6 µg/mL (≈ 35.2 µM)
Micrococcus luteus [9]
  IC50: 2.5 µM
Staphylococcus aureus [10]
  MIC: 15.6 µg/mL (≈ 35.2 µM)
Bacillus subtilis [11]
  MIC: 7.8 µg/mL (≈ 17.6 µM)
Nakaseomyces glabratus
  MIC: 7.8 µg/mL (≈ 17.6 µM)
Staphylococcus aureus [12]
  MBC: 7.8 µg/mL (≈ 17.6 µM)
Escherichia coli [13]
  IC50: 2.5 µM
Candida albicans [14]
  MIC: 7.8 µg/mL (≈ 17.6 µM)
Micrococcus luteus [15]
  MBC: 7.8 µg/mL (≈ 17.6 µM)
Bacillus subtilis [16]
  IC50: 2.5 µM
Staphylococcus aureus [17]
  MBC: 7.8 µg/mL (≈ 17.6 µM)
Raoultella planticola [18]
  IC50: 2.5 µM
Staphylococcus aureus [19]
  IC50: 2.5 µM
Escherichia coli [20]
  MIC: 7.8 µg/mL (≈ 17.6 µM)
Pichia kudriavzevii
  MIC: 7.8 µg/mL (≈ 17.6 µM)
Candida albicans [21]
  MIC: 7.8 µg/mL (≈ 17.6 µM)
Escherichia coli [22]
  MBC: 7.8 µg/mL (≈ 17.6 µM)
Candida albicans [23]
  MIC: 7.8 µg/mL (≈ 17.6 µM)
Candida albicans [24]
  MIC: 7.8 µg/mL (≈ 17.6 µM)
Pichia sporocuriosa
  MIC: 7.8 µg/mL (≈ 17.6 µM)
Micrococcus luteus [25]
  MIC: 15.6 µg/mL (≈ 35.2 µM)
Staphylococcus aureus [26]
  IC50: 2.5 µM
Raoultella planticola [27]
  MIC: 7.8 µg/mL (≈ 17.6 µM)
Raoultella planticola [28]
  MBC: 7.8 µg/mL (≈ 17.6 µM)
Bacillus subtilis [29]
  MBC: 7.8 µg/mL (≈ 17.6 µM)

## CCOC(=O)c1nc2c3c(ncn2n1)Oc1ccc2cc(Br)ccc2c1C3
Serratia marcescens
  diameter of the inhibition zone (DIZ): 24 mm
Bacillus cereus
  diameter of the inhibition zone (DIZ): 23 mm
Aspergillus ochraceus
  diameter of the inhibition zone (DIZ): 17 mm
Penicillium chrysogenum
  diameter of the inhibition zone (DIZ): 22 mm

## CC1(C)S[C@@H]2[C@H](NC(=O)[C@H](N)c3ccc(O)cc3)C(=O)N2[C@H]1C(=O)O [AMOXICILLIN]
Staphylococcus aureus [30]
  MIC: 31.3 µg/mL (≈ 85.7 µM)
Staphylococcus aureus [31]
  zone of inhibition at 100 µg/mL: 13.8 mm
Streptococcus pneumoniae
  MIC: 7.8 µg/mL (≈ 21.3 µM)
Klebsiella pneumoniae [32]
  zone of inhibition at 100 µg/mL: 18 mm
Escherichia coli [33]
  zone of inhibition at 100 µg/mL: 19.5 mm
Pseudomonas aeruginosa [34]
  zone of inhibition at 100 µg/mL: 15 mm
Klebsiella pneumoniae [35]
  zone of inhibition at 50000 µg/mL: 15 mm
Staphylococcus aureus [36]
  zone of inhibition at 100 µg/mL: 17.5 mm
Bacillus subtilis [37]
  zone of inhibition at 100 µg/mL: 15.5 mm
Escherichia coli [38]
  zone of inhibition at 50000 µg/mL: 24 mm
Klebsiella pneumoniae [39]
  zone of inhibition at 100 µg/mL: 13.6 mm
Escherichia coli [40]
  zone of inhibition at 100 µg/mL: 14.9 mm
Aspergillus fumigatus
  MIC: 15.6 µg/mL (≈ 42.7 µM)
